Laboratory results: US20100113608A1, “Tryptase Enzyme Inhibiting Aminothiophenols” (priority 2008, published 2010)

Tests used:
tryptase enzyme = target: T1, tryptase enzyme (Homo sapiens, UniProt P20231); test: Tryptase enzyme inhibition (cleavage of tosyl-gly-pro-lys-pNA, absorbance at 405 nm); format: biochemical; details: 2 h at 37° C.; relative to controls
T1 construct: purchased Millipore Inc., Westbury, Mass
Procedure: A. Tryptase Enzyme Inhibition
Tryptase activity was determined by monitoring the production of chromophore p-nitroaniline (pNA) generated by the cleavage of tosyl-gly-pro-lys-pNA by the tryptase enzyme according to the manufacturer's protocol (Millipore Inc., Westbury, Mass.). In a 96-well format, 10 μL of tryptase was added to 10 μL of sample, followed by 20 μL of tosyl-gly-pro-lys-pNA and 160 μL of 1× reaction buffer and incubated for 2 h at 37° C. After the incubation, absorbance at 405 nm was measured in each well using a Tecan M200 microplate reader.

[1] = Pharmacokinetic analysis: serum and urine by DART TOF-MS after a 100 mg lozenge; format: in vivo, human; details: humans
Procedure: Five healthy consenting female adults ranging in age from 23 to 57 were took diets free of flavonoids and any NSAIDs. A certified individual collected blood samples at several time intervals between 0 and 480 min after compounds of the present invention were ingested in a mixture. Immediately after the time zero blood samples were collected, a single 100 mg dose of the composition was administered as a lozenge. Blood samples were handled with approved protocols and precautions, centrifuged to remove cells and the serum fraction was collected and frozen. Blood was not treated with heparin to avoid any analytical interference. Urine samples were collected from the same five subjects on a time course (0 to 8 h). The cells were removed from the blood samples by centrifugation and the serum was collected. Serum samples were prepared for DART TOF-MS analysis by extraction with an equal volume of neat ethanol (USP) to minimize background of proteins, peptides, and polysaccharides present in serum. The ethanol extract was centrifuged for 10 min at 4° C., the supernatant was removed, concentrated to 200 μL volume, and 50 μL of an internal standard was added. Urine samples were not treated and used directly for DART TOF-MS. DART TOF-MS analyses were conducted as described above.

[2] = in a mixture, slow-dissolve lozenge

T1 sequence (P20231 31-275): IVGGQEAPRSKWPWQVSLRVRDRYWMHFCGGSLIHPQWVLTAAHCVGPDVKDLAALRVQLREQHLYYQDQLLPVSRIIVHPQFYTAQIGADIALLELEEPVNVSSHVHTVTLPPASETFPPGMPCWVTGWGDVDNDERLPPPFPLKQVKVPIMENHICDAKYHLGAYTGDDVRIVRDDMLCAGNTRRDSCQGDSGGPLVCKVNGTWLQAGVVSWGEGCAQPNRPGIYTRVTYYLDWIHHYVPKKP

## CCCCCN(c1ccc(N)cc1)c1ccc(S)cc1.Cl [III, 4-[(4-Amino-phenyl)-pentyl-amino]benzenethiol hydrochloride salt]
Tryptase enzyme
  IC50: 493 µM
[1]; [2]
  Time to appearance in urine: ≤ 1 h
  Time to first appearance in bloodstream (serum): ≤ 10 min
  Time up to which present in the blood post-ingestion: up to 360 min
  Time up to which present in urine post-ingestion: up to 8 h
[1]; lozenge, 480 min
  Detection in blood at 480 min after ingestion: not detected
